# According to patent US20230054563A1, “COMPOSITION AND METHODS OF MANUFACTURE” (Phoenix Eagle Company Pty Ltd, priority 2019, published 2023):
# “Also recorded” adds a separate entry of the source.
# B1: pure latex papain: Pure latex papain, reference for specific L-BApNA activity (protein, UniProt P00784 134-345, looked up)
# Papain: IPEYVDWRQKGAVTPVKNQGSCGSCWAFSAVVTIEGIIKIRTGNLNEYSEQELLDCDRRSYGCNGGYPWSALQLVAQYGIHYRNTYPYEGVQRYCRSREKGPYAAKTDGVRQVQPYNEGALLYSIANQPVSVVLEAAGKDFQLYRGGIFVGPCGNKVDHAVAAVGYGPNYILIKNSWGTGWGENGYIRIKRGTGNSYGVCGLYTSSFYPVKN
# What was measured:
# [1] = system: cysteine protease(s) and serine protease(s) in OPAL B filtrate; assay: Overlay zymography of OPAL B filtrate with L-BApNA membrane, with or without inhibitors; type: biochemical, Carica papaya; settings: inhibitor on nitrocellulose membrane; upper band cysteine, lower band serine protease(s)
# Procedure: Overlay-zymography was carried out according to the procedure in Vinokurov et al. (2005) with some modifications (FIG. 1). Briefly, a nitrocellulose membrane was soaked in a 1.2 mg/mL L-BApNA solution in water. The membrane was subsequently left to air dry for 5 minutes and then laid on top of the native PAGE gel after running the samples through, which were slightly soaked in their respective running buffers. Two additional experiments were carried out in which membranes were soaked in […] R-alanine, 0.14 M acetic acid, pH 4.3, with either 10 mM DTT or 25 mM cysteine. All zymographies were then incubated in a closed chamber at 37° C. for 30-60 min. The membrane was removed and again left to dry for 5 minutes and the p-nitroaniline was visualized by diazotization.
# Diazotization was performed by following the protocol detailed in Hosseininaveh et al. (2009). […]
# OPAL B filtrate appears to be a complex mixture of many proteins. Therefore, to individually visualize the protease activities that were detected by spectrophotometry assays, we used a technique called overlay zymography. […]
# [2] = system: proteolytic activity of OPAL B filtrate (cysteine and serine proteases); assay: Effect of protease inhibitors on L-BApNA proteolytic activity of OPAL B filtrate; type: biochemical, Carica papaya; settings: inhibitor added to OPAL B filtrate
# Procedure: (§1) A 1.5 mM stock solution of L-BApNA (B-3133 sigma) was prepared by dissolving 63 mg of L-BApNA in 1.5 ml dimethyl sulfoxide (DMSO), and then made up to 100 ml with water. Hydrolysis of the L-BApNA at the bond between the arginine and the p-nitroaniline moieties releases the chromophore p-nitroaniline, which can be detected by spectroscopy at an absorbance of 410 nm in International Units (IU). IU is defined as the amount of enzyme that causes an increase in absorbance of 0.01 units/min under excess substrate conditions (zero order kinetics). Solids specific activity is expressed in IU/mg, while in the case of liquid formulations, the activity is expressed in IU/mL.
# (§2) We therefore previously concluded that the protease activity in OPAL A is essentially due only to the presence of active cysteine proteases. To determine the effect of omitting the heat treatment step, the protease activity in both OPAL A and OPAL B filtrates was tested using an L-BApNA assay. After 10 minutes, E-64 inhibitor was added.
# To better understand the non-thiol dependent or non-cysteine proteases in the OPAL B filtrate, enzymatic assays were carried out initially using a Protease Inhibitor Cocktail (PIC) (sigma P2714), containing all the essential protease inhibitors (see Table 3).
# [3] = system: active serine protease in OPAL B filtrate; assay: Serine protease reactivity probe, SDS PAGE western blotting of OPAL B filtrate; type: biochemical, Carica papaya
# Description: To establish which of the different bands corresponded to a proteolytically active form of subtilase in the OPAL B filtrate, we used a reactivity probe, which specifically labels active serine proteases via a fluorosulfonate group linked to biotin. This reactivity probe can then be visualized on a regular SDS PAGE gel via western blotting technique, using streptavidin-conjugated enzymes such as alkaline phosphatase. Using this technique allowed the visualization of the active serine protease band inhibited by AEBSF treatment at around 50 kDa as shown in FIG. 11.
# [4] = system: cysteine protease activity of OPAL A; assay: Effect of E-64 on protease activity of OPAL A; type: biochemical, Carica papaya; settings: previously established, unpublished data
# Procedure: as §2
# [5] = L-BApNA proteolytic activity assay (A410); type: biochemical
# Procedure: as §1
# To determine the optimal substrate concentration to maintain zero order kinetics throughout experiments, a series of titration runs were carried out with a range of substrate concentrations. The minimum concentration thus found is […] or 1:6 dilution of the stock 1.5 mM solution. […] Phosphate buffer at pH 6 was used in the L-BApNA assays because it gave the highest enzymatic activity reading compared to other buffers.
# Hydrolysis of L-BApNA in the presence of protease, at the bond between the arginine and p-nitroaniline moieties, releases the chromophore p-nitroaniline, which can then be detected by spectroscopy at a wavelength of 410 nm. […]
Molecule,inhibition of zymography bands of OPAL B [1],inhibition of L-BApNA proteolytic activity of OPAL B filtrate [2],effect on active serine protease band at around 50 kDa labelled by reactivity probe [3],inhibition of cysteine protease activity of OPAL A [4],activity of pure latex papain [5]
NCCc1ccc(S(=O)(=O)F)cc1 [AEBSF],inhibition of lower band,able to halt proteolytic activity,inhibited,–,–
"CC(C)C[C@H](NC(=O)[C@H]1C[C@@H]1C(=O)O)C(=O)NCCCCNC(=N)N [E-64, (1S,2S)-2-(((S)-1-((4-Guanidinobutyl)amino)-4-methyl-1-oxopentan-2-yl)carbamoyl) cyclopropane carboxylic acid]",complete inhibition of upper band,did not result in complete inhibition of activity; also recorded: able to halt proteolytic activity,–,essentially abolished,–
B1,–,–,–,–,around 10 IU/mg
